{"source": "patent US8440627B2", "about": "“G protein coupled receptor agonists and antagonists and methods of use” (Tufts Medical Center, Inc., priority 2004, dated 2013)", "key": {"[1]": {"test_system": "OVCAR-4 human ovarian cancer cells", "assay": "Chemotaxis assay (20 h, 48 blindwell microchemotaxis chamber) toward NIH3T3 conditioned media, OVCAR-4", "format": "cell-based", "conditions": "OVCAR-4, NIH3T3 conditioned media, FIG. 27", "method": "(§1) Conditioned media was prepared from NIH3T3. Chemotaxis assays (20 h) were performed using a 48 blindwell microchemotaxis chamber (Neuroprobe) equipped with […] pore nitrocellulose filters for OVCAR-4 human ovarian cancer cells and MDA-MB-231 human breast cancer cells. Data is expressed as chemotaxis index which is the ratio between the distance of migration toward NIH3T3 conditioned media over migration toward RPMI medium alone."}, "[2]": {"test_system": "MDA-MB-231 human breast cancer cells", "assay": "Chemotaxis assay (20 h, 48 blindwell microchemotaxis chamber) toward NIH3T3 conditioned media, MDA-MB-231", "format": "cell-based", "conditions": "MDA-MB-231, NIH3T3 conditioned media, FIG. 27", "method": "as §1"}, "[3]": {"test_system": "mice subjected to cecal ligation and puncture (CLP)", "assay": "Cecal ligation and puncture (CLP) sepsis: survival and body weight", "format": "in vivo", "method": "The time point selected for treatment is at the induction of non-lethal sepsis by cecal ligation and puncture (CLP). After an initial dose of 2.5 mg/kg, 1 mg/kg pepducin (or vehicle) was injected into the mice subcutaneously each day for six days. *: Four mice out of the vehicle-treated group were sacrificed after six days; #: one mouse out of the groups treated with x1/2i1LCA10 pepducin was sacrificed on day 6, and all remaining surviving mice were sacrificed at 17 days. […] In the left panel, mice were treated with x1/2pal16, x1/2i1LCA10 or vehicle (20% DMSO) at the time point of CLP. In the right panel, mice were monitored for body weight every day.\nThere are only few reports where treatment of sepsis is sufficient, even after the onset of systemic inflammatory response syndrome. […] The time point selected for treatment is […] the induction of non-lethal sepsis by cecal ligation and puncture (CLP). […] In the right panel, mice were monitored for their body weight every day.\nCLP was performed on 6 to 8 week old female CF-1 mice. […] In the left panel, mice were monitored for body weight every day. […]\nThe diagnosis of sepsis is often delayed and agents cannot be readily administered in a preventative mode, therefore pepducin treatment was withheld until 8 h after the CLP procedure. […]"}, "[4]": {"test_system": "mice subjected to cecal ligation and puncture (CLP)", "assay": "CLP sepsis: peripheral leukocyte count", "format": "in vivo", "conditions": "septic mice after CLP, once per day administration, blood 1-17 days", "from_the_text": "It has been shown that SDF-1α and CXCR4 are involved in recruiting immature neutrophils from the bone marrow. High levels of CXCR4 expression and activation lead to homing of senescent neutrophils to the bone marrow, whereas chemokines acting on the CXCR2 receptors of neutrophils, i.e., KC, Gro-α or IL-8, lead to increased neutrophil mobilization. Blood was drawn 1, 3, 5, 7 and 17 days after CLP, and leukocytes were counted. An initial decrease in leukocytes in vehicle-treated mice was observed. […] This observation would match previous reports where either blocking of CXCR4 or stimulation of CXCR2 lead to neutrophilia in the peripheral blood of mice.\n(§2) The long-term effects of the chemokine pepducins on peripheral leukocyte counts were assessed in healthy untreated mice. Pepducins were injected once per day sub-Q (2.5 mg/kg day 1, 1.0 mg/kg days 2-6) and circulating leukocyte levels measured over a one week period. […] The effects of the chemokine pepducins on peripheral leukocyte count were quite similar in septic mice subjected to cecal ligation and puncture (CLP)."}, "healthy untreated mice": {"test_system": "healthy untreated mice", "assay": "Peripheral leukocyte counts in healthy mice", "format": "in vivo", "conditions": "sub-Q once per day 2.5 mg/kg day 1, 1.0 mg/kg days 2-6, one week", "method": "as §2"}, "[5]": {"test_system": "mice subjected to cecal ligation and puncture (CLP)", "assay": "CLP sepsis: plasma liver enzyme levels (AST, ALT)", "format": "in vivo", "conditions": "for plasma levels of ALT: 24 hours after CLP", "method": "Since organ failure determines the outcome of patients in SIRS, liver function was investigated. Mice were sacrificed 24 hours after CLP and plasma levels of ALT, an enzyme that increases with loss of liver function, were measured. In sham-treated mice, i.e., abdominal incision without cecal ligation and puncture, no elevation of ALT was observed.\nLiver failure is a common sequalae of severe sepsis. Treatment with the CXCR1/2 pepducins right after CLP reduced liver damage as evidenced by decreases of 52-87% in liver enzyme levels (AST, ALT) whereas the CXCR4 pepducin, x4pal-i1, had no effect. When CXCR1/2 pepducin treatment was initiated 8 h after CLP, the rise in plasma AST and ALT levels were halted by the 16 h time point and then dropped to near normal levels."}, "[6]": {"test_system": "thioglycollate peritonitis model in mice", "assay": "Thioglycollate peritonitis model: leukocyte recruitment into the peritoneal cavity", "format": "in vivo", "method": "Mice were injected with 1 mL of 3% thioglycollate i.p. Thioglycollate induces peritoneal macrophages to secret cytokines and leukocytes are then recruited into the peritoneal cavity. Pepducins were injected i.v. at the indicated doses. After 4 hours, cells were collected by peritoneal lavage, stained with Giemsa and counted under 40× magnification. N=60.\nThe effects of the CXCR1/2 and CXCR4 pepducins on neutrophil homeostasis under normal versus pro-inflammatory conditions in mice were evaluated. Leukocyte recruitment was first assessed in a thioglycollate peritonitis model."}, "human platelets": {"test_system": "human platelets", "assay": "Human platelet aggregation to thrombin", "format": "cell-based", "conditions": "thrombin greater than 11 nM; RWJ-56110 supplemented with PAR1-blocking antibody plus bivalirudin"}, "[7]": {"test_system": "mice subjected to cecal ligation and puncture (CLP)", "assay": "CLP sepsis: bleeding time, D-dimer, platelet counts (DIC)", "format": "in vivo", "method": "Systemic inflammatory responses, the derangement of coagulation and fibrinolysis in DIC is mediated by several pro-inflammatory cytokines. Changes in bleeding time and increases in D-dimer, which is a product of excessive counter-regulatory fibrinolysis, is a hallmark of disseminated intravascular coagulation, leading to widespread deposition of fibrin in the circulation, contributing to multi organ failure and death in septic patients. […] A. Bleeding time was measured 24 h after CLP and immediate onset of treatment. […] B. D-dimer levels were measured 48 hours after CLP. As a surrogate marker of the amount of fibrin deposition, D-dimer was increased after CLP, to a higher extent in vehicle-treated mice than in CXCR2 pepducin-treated mice. C. Depicts the bleeding time of mice that were treated 8 h after CLP. D. Depicts the D-dimer levels of mice treated 8 h after CLP.\nTherefore, systemic platelet activation was observed by measuring platelet counts and D-dimer levels, a marker of the increased fibrin production and subsequent fibrinolysis that occurs during DIC. […] When the CXCR1/2 pepducin treatment was delayed until 8 h after the CLP procedure, D-dimer levels were still reduced by 60-70%."}, "[8]": {"test_system": "mice subjected to cecal ligation and puncture (CLP)", "assay": "CLP sepsis: BAL neutrophils and lung histology", "format": "in vivo", "method": "Adult respiratory […] syndrome (ARDS) results from excessive neutrophil infiltration into lungs and their activation, leading to fibrin deposition. Sepsis can cause ARDS, which has a high lethality. Panels A and B: Mice were sacrificed 24 hours after CLP and BAL was performed. Neutrophils were counted after staining with Giemsa, TNF was measured by ELISA. *p<0.02 vs. vehicle treated group. C Lung histology. Mice were sacrificed 48 hours after CLP.\nBlockade of CXCR1/2 signaling with pepducins reversed several criteria of established SIRS in the septic mice. First, the effect of CXCR1/2 pepducins on systemic KC levels, the mouse IL-8 ortholog was examined. In untreated mice, KC levels rose over the 16 h period after CLP and remained elevated for at least 48 h. Following administration of the CXCR1/2 pepducins at the 8 h time point, the systemic KC levels rapidly dropped and remained low thereafter. Many of the untreated CLP mice became tachypnic and hypoxemic as early as 24 h and this correlated well with mortality. During sepsis, bacterial endotoxin stimulates lung epithelia to secrete IL-8 which recruits and activates leukocytes. The resulting neutrophil margination eventually leads to lung damage. The number of neutrophils in the bronchioalveolar lavage (BAL) fluid of untreated mice increased by 100-fold as early as 4 h after CLP and then rose to 200-300 fold after 8 h. […]"}, "CXCR4 [9]": {"target": "T1, CXCR4 (Homo sapiens, UniProt P61073)"}, "CXCR4 [10]": {"target": "CXCR4 (Mus musculus, UniProt P70658)", "sequence (P70658 whole entry)": "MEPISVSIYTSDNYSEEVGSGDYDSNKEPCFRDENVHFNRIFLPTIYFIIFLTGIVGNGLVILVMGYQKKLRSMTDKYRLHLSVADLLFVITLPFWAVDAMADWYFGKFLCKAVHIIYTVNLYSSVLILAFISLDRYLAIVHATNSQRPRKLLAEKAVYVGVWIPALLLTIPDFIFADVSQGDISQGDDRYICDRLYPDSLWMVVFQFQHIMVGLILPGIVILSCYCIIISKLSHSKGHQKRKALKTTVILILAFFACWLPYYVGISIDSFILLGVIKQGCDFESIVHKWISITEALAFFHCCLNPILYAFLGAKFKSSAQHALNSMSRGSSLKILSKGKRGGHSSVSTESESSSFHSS"}, "CXCR4 [11]": {"target": "T1, CXCR4", "conditions": "CXCR4 co-expressed with CXCR1 or CXCR2"}, "[12]": {"conditions": "thioglycollate i.p., pepducin i.v., 4 hours"}}, "note": "Ends that are not written are not given here.", "data": [{"compound": "CXCR4 i1 loop pepducin, CXCR4 antagonist; x4i1pal12 is MGYQKKLRSMTD with palmitate (SEQ ID NO 25) (also: palmitate) [x4pal-i1]", "values": [{"measurement": "chemotactic migration of ovarian cancer cells", "setting": "[1]", "value": "block chemotactic migration"}, {"measurement": "chemotactic migration of breast cancer cells", "setting": "[2]", "value": "block chemotactic migration"}, {"measurement": "effect on survival", "setting": "[3]; CLP mice", "value": "no effect on survival"}, {"measurement": "peripheral blood leukocyte levels", "setting": "[4]", "value": "accelerated leukocytosis on day 1 and leukopenia by day 7"}, {"measurement": "peripheral blood leukocyte levels", "setting": "[4]; listed as x4i1pal12", "value": "increased immediately, but decreased 5 days after CLP to very low levels"}, {"measurement": "peripheral leukocyte count", "setting": "healthy untreated mice", "value": "caused a leukocytosis"}, {"measurement": "plasma levels of ALT", "setting": "[5]", "value": "an increase in ALT"}, {"measurement": "effect on liver damage, liver enzyme levels (AST, ALT)", "setting": "[5]; treatment right after CLP", "value": "no effect"}, {"measurement": "transmigration of neutrophils into the peritoneal cavity", "setting": "[6]; [12]", "value": "substantial increase"}, {"measurement": "EC50, increase in peritoneal neutrophils", "setting": "[6]; thioglycollate peritonitis", "value": "~0.1", "unit": "mg/kg"}]}, {"compound": "NCC[C@H](NC(=O)[C@H](Cc1ccc(F)c(F)c1)NC(=O)Nc1ccc2c(CN3CCCC3)cn(Cc3c(Cl)cccc3Cl)c2c1)C(=O)NCc1ccccc1", "note": "[RWJ-56110]", "values": [{"measurement": "thrombin activation of PAR4-dependent aggregation", "setting": "human platelets", "value": "regained full activation"}]}, {"compound": "x1/2pal-i1: I1-loop pepducin based on CXCR1/2; x1/2i1pal12 is ILYSRVGRSVTD with palmitate (SEQ ID NO 18, 21) (also: palmitate)", "values": [{"measurement": "chemotactic migration of ovarian cancer cells", "setting": "[1]", "value": "block chemotactic migration"}, {"measurement": "chemotactic migration of breast cancer cells", "setting": "[2]", "value": "block chemotactic migration"}]}, {"compound": "CXCR1/CXCR2 i1 loop pepducin, sequence YSRVGRSVTD, lithocholate lipid modification (SEQ ID NO 20, 23) (also: lithocholate lipid modification) [x1/2i1LCA10]", "values": [{"measurement": "sepsis-induced mortality", "setting": "[3]; pepducin immediately after CLP, 2.5 mg/kg then 1 mg/kg until day 6", "value": "highly significant decrease"}, {"measurement": "bleeding time", "setting": "[7]; 24 h after CLP, immediate onset of treatment", "value": "normal bleeding times"}, {"measurement": "D-dimer levels", "setting": "[7]; 48 hours after CLP", "value": "significant reductions"}, {"measurement": "peripheral blood leukocyte levels", "setting": "[4]", "value": "remained in the normal range"}, {"measurement": "peripheral blood leukocyte levels", "setting": "[4]; listed as x1/2LCA-i1", "value": "within the normal range"}, {"measurement": "peripheral leukocyte count", "setting": "healthy untreated mice", "value": "neither x1/2pal-i3 nor x1/2LCA-i1 altered the leukocyte count"}, {"measurement": "plasma levels of ALT", "setting": "[5]", "value": "an increase was observed but it was significantly less compared to vehicle treated mice"}, {"measurement": "lung fibrin deposition (histology)", "setting": "[8]; lungs harvested at 48 h after CLP", "value": "significant protection against fibrin deposition"}, {"measurement": "neutrophils in bronchioalveolar lavage (BAL) fluid", "setting": "[8]; treatment at 8 h after CLP", "value": "rapid drop"}, {"measurement": "IC50, inhibition of transmigration of neutrophils into the peritoneal cavity", "setting": "[6]; [12]", "value": 0.15, "unit": "mg/kg"}, {"measurement": "transmigration of neutrophils into the peritoneal cavity", "setting": "[6]; [12]", "value": "completely inhibited"}, {"measurement": "migration of leukocytes towards SDF-1α", "setting": "CXCR4 [9]", "value": "does not inhibit migration"}, {"measurement": "migration of leukocytes towards SDF-1α", "setting": "CXCR4 [10]", "value": "does not inhibit migration"}, {"measurement": "inhibition of CXCR4", "setting": "CXCR4 [11]", "value": "does not inhibit CXCR4"}]}]}
